According to article PMC4012445, “Spirocyclic Drimanes from the Marine Fungus Stachybotrys sp. Strain MF347” (Marine Drugs, 2014):
Structures can show the parent of a compound that is named as a salt. Where two headings read alike, the source gives them in different places.

Tests used:
[1] = tested on: Bacillus subtilis (DSM 347); test: Antibiotic activity against Bacillus subtilis; type: cell-based; settings: DSM347, growth inhibition, 0.1–50 µM analyzed twice in duplicates, read-out: IC50, antibiotic activity, B. subtilis
Method: (§1) The antimicrobial activities of 1–13 against the bacterium Bacillus subtilis (DSM 347) and the human pathogenic yeast Candida albicans (DSM 1386) were determined according to Ohlendorf et al., 2012 [26].The bioassays using the clinically relevant bacterial strains Staphylococcus epidermidis (DSM 20044), the methicillin-resistant Staphylococcus aureus (MRSA) (DSM 18827), and Klebsiella pneumoniae DSM 30104 were performed as described by Silber et al., 2013 [27]. S. aureus and K. pneumoniae were investigated in the same manner as S. epidermidis. […] The concentration of the compounds used in the initial bioassays was 100 µM (antibiotic tests), 50 µM (cytotoxic tests), and 10 µM (enzymatic tests), respectively. […] Positive controls were carried out with chloramphenicol (bacteria), nystatin (yeast), clotrimazole (fungi), tamoxifen citrate (cell lines), rolipram (PDE-4B2), huperzine (AchE), and TDZD-8 (GSK-3β).

[2] = tested on: Staphylococcus epidermidis (DSM 20044); test: Antibiotic activity against Staphylococcus epidermidis; type: cell-based; settings: DSM20044, growth inhibition, 0.1–50 µM analyzed twice in duplicates, read-out: IC50, antibiotic activity, S. epidermidis
Method: as §1

[3] = tested on: methicillin-resistant Staphylococcus aureus (MRSA) (DSM 18827); test: Antibiotic activity against methicillin-resistant Staphylococcus aureus; type: cell-based; settings: read-out: IC50, S. aureus MRSA
Method: as §1

[4] = Cytotoxic activity against NIH-3T3; type: cell-based
Method: The concentration of the compounds used in the initial bioassays was 100 µM (antibiotic tests), 50 µM (cytotoxic tests), and 10 µM (enzymatic tests), respectively. […] Positive controls were carried out with chloramphenicol (bacteria), nystatin (yeast), clotrimazole (fungi), tamoxifen citrate (cell lines), rolipram (PDE-4B2), huperzine (AchE), and TDZD-8 (GSK-3β).

[5] = in vitro
[6] = growth inhibition, 0.1–50 µM analyzed twice in duplicates
[7] = NIH-3T3 fibroblast cells, mouse fibroblasts cell line, 0.1–50 µM analyzed twice in duplicates, read-out: IC50, cytotoxic activity, NIH-3T3
[8] = human, HepG2 hepatocellular carcinoma cells

| Structure (SMILES) | IC50 [1] [µM] | IC50 [2] [µM] | IC50 [3, 6] [µM] | IC50 [4, 7] [µM] | IC50 [5, 8] [µM] | IC50 ([4]; mouse) [µM] | IC50 ([5]; human) [µM] | IC50 [3] [µM] | IC50 ([4]; mouse fibroblasts cell line, 0.1–50 µM analyzed twice in duplicates, read-out: IC50, cytotoxic activity, NIH-3T3) [µM] | IC50 [5] [µM] |
| --- | --- | --- | --- | --- | --- | --- | --- | --- | --- | --- |
| C[C@H]1CC[C@@H]2C(C)(C)[C@@H](O)[C@H](O)C[C@@]2(C)[C@]12Cc1c(O)cc3c(c1O2)CN(CCCCC(C(=O)O)N1Cc2c(cc(O)c4c2O[C@@]2(C4)[C@@H](C)CC[C@@H]4C(C)(C)[C@@H](O)[C@@H](O)C[C@]42C)C1=O)C3=O (stereo partly shown) [Compound 11, stachybocin B] | 1.77 | 4.44 | 3.94 | > 50 | > 50 | – | – | – | – | – |
| CC1CCC2C(C)(C)C(O)CCC2(C)C12Cc1c(O)cc3c(c1O2)CN(C1OCc2cc(O)c4c(c21)OC1(C4)C(C)CCC2C(C)(C)C(O)CCC21C)C3=O (stereo not shown) [Compound 2, stachyin B] | 1.42 | 1.02 | 1.75 | 13 | 14.3 | – | – | – | – | – |
| CC/C(=C(\c1ccccc1)c1ccc(OCCN(C)C)cc1)c1ccccc1 [tamoxifen citrate, reference compound] | – | – | – | – | – | 16.4 | 17.9 | – | – | – |
| CC(C)=CCC/C(C)=C/CC/C(C)=C/Cc1c(O)cc(C)c(C=O)c1O [Compound 13, ilicicolin B] | 1.06 | 3.18 | 0.74 | 30 | > 50 | – | – | – | – | – |
| C[C@H]1CC[C@@H]2C(C)(C)[C@@H](O)CC[C@@]2(C)[C@]12Cc1c(O)cc3c(c1O2)CN(CCCCC(C(=O)O)N1Cc2c(cc(O)c4c2O[C@@]2(C4)[C@@H](C)CC[C@@H]4C(C)(C)[C@@H](O)CC[C@]42C)C1=O)C3=O (stereo partly shown) [Compound 12, stachybocin A] | 2.03 | 2.84 | – | – | – | – | – | 3.71 | > 50 | > 50 |
| O=C(N[C@H](CO)[C@H](O)c1ccc([N+](=O)[O-])cc1)C(Cl)Cl [Chloramphenicol, chloramphenicol, reference compound] | 1.45 | 1.81 | – | – | – | – | – | 2.46 | – | – |
